Experimental data taken from US20090148382A1, “Technetium- and rhenium-bis(heteroaryl) complexes, and methods of use thereof” (Molecular Insight Pharmaceuticals, Inc., priority 2004, published 2009).

What was measured:
[1] = Stability to transchelation (cysteine / histidine challenge); type: physicochemical; settings: 99mTc-labeled HPLC purified product
Description: The stability of the complex to transchelation was investigated by incubating two separate samples of 4b with 1000 fold excess of cysteine and histidine in PBS buffer heated to 37° C.

[2] = Biodistribution / blood clearance of 99mTc complex; type: in vivo
Source text: We have also explored extensively the use as ligands for metal tricarbonyls, e.g., Re and Tc tricarbonyls, of protected and unprotected versions of [ε-{N,N-di(pyridyl-2-methyl)}α-(fmoc)lysine] (Fmoc-DpK). The choice of the tridentate DpK for the exploration of a single amino acid chelate was based on the excellent RCP and RCY, and the potential to prepare radiopharmaceutical kits. The pyridine-2-methylamine was easily derivatized into the amino acid.
This approach enables the creation of libraries containing the {M(CO)3}^1+ core. We have begun to define the biological fate of the ^99mTc-bis(heteroaryl) complexes, allowing us to compare a series of future tridentate analogs. The dipyridine labeling proceeded in high yield and was stable to excess histidine and cysteine challenges for more than 18 hours. […] Activity decreased in all tissues as a function of time, except in the GI tract, which increased with time.

[3] = biological target: T1, formyl peptide receptor (Homo sapiens, UniProt P21462); test: Affinity for the formyl peptide receptor by flow cytometry; type: binding; settings: fluorescein labeled fNLFNTK as the reference ligand
T1 sequence (P21462 1-350): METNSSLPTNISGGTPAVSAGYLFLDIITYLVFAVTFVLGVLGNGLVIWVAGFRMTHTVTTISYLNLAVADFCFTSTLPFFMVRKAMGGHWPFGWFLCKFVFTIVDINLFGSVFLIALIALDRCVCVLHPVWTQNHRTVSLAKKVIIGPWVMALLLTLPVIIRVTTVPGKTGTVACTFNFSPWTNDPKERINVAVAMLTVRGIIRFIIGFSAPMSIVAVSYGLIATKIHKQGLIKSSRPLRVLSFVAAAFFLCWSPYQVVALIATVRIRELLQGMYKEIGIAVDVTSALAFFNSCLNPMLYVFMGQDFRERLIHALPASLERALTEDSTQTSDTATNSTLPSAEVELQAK
Description: The affinity of 5 and 6 for the formyl peptide receptor was determined by flow cytometry using fluorescein labeled fNLFNTK as the reference ligand.

O=C(NC(CCCCN(Cc1ccccn1)Cc1ccccn1)C(=O)O)OCC1c2ccccc2-c2ccccc21 (stereo not drawn) [Fmoc-DpK, [ε-{N,N-di(pyridyl-2-methyl)}α-(fmoc)lysine]]
degradation in challenge experiments ([1]; 100 mM Cysteine or Histidine in PBS pH 7.2 at 37° C. for 18 hrs): no degradation

O=C1c2ccccc2C(=O)N1CCCCN(Cc1ccccn1)Cc1ccccn1 [[{N,N-di(pyridyl-2-methyl)}N-butyl-phthlalimide]]
degradation in challenge experiments ([1]; 10 mM Cysteine or Histidine in PBS pH 7.2 at 37° C. for 20 hrs): no degradation

[^99mTc(CO)3(DpK)]
blood clearance % ID/g ([2]; 5 minutes): 0.6 % ID/g | blood clearance % ID/g ([2]; 30 minutes): 0.07 % ID/g

fMLF[(SAACQ-Re(CO)3)^+]G [Compound 6]
Kd [3]: 27 ± 13 nM
